Test results as given in article PMC3983056 (PLoS Pathogens, 2014).
Where “and” joins values, the source holds several entries; their conditions need not be identical. Identical values can stand only once. Like-named read-outs stand apart in the source and are kept apart here.

Key:
[1] = tested on: HIV expressing a luciferase reporter gene (NL4-3-Luc) in latently infected primary CD4 T cells; test: microbe, parasite or virus in culture; format: cell-based; settings: Human immunodeficiency virus 1, NL43, CD4+ T, 48 h, continuous 48 hours, cells from three healthy donors, mean ± SD
From the text: To assess clinically tested HDACi for their ability to activate HIV from latency, we first employed a previously described in vitro HIV latency model, [30] with several modifications to increase the sensitivity of detection. The assay involves freshly isolated naïve CD4 T cells from healthy donors polarized to a Th0 phenotype, which mimics memory CD4 T cells. These Th0 cells are then infected with HIV expressing a luciferase reporter gene and cultured for an additional 7 to 10 days until a latent infection is established.
Total peripheral blood mononuclear cells (PBMCs) were obtained from healthy HIV-negative donors by leukapheresis (AllCells, Inc, Emeryville, CA). […] Purified naive CD4+ T cells were activated by incubation with anti-CD3/CD28 magnetic Dynabeads (1 bead: 2 cells ratio, Life Technologies), 1 µg/ml anti-IL-4 (R&D Systems, Minneapolis, MN), 2 µg/ml anti-IL-12p70 antibodies (R&D Systems), and 10 ng/ml TGF-β (R&D Systems) for 3 days, [59]. Following the removal of anti-CD3/CD28 beads and antibodies, cells were maintained in 30 U/ml IL-2 (Life Technologies) for 2 days. Cells were then infected with NL4.3-Luc in the presence of 50 µg/ml DEAE for 3 hours. Cells were maintained in the continued presence of 30 U/ml IL-2 throughout the infection and subsequent rest period with culture medium with fresh IL-2 replaced every 2–3 days. Seven days post-infection, 20 µl of latently infected cells were dispensed into 384 well plates using a MicroFlo dispenser (Biotek Insturments, VT) at 10,000 cells/well containing 100 nl of compound solutions delivered by the Echo acoustic-based liquid dispenser (Labcyte, Sunnyvale, CA). After a 48-hour incubation, 16 µl/well BriteGlo (Promega, Madison, WI) was added and luminescence measured using the Envision plate reader (Perkin Elmer, Waltham, MA). Compound-associated cytotoxicity was determined in latently infected cells in parallel with the virus activation assay. Cells were incubated with compounds for 48 hours at 37°C, and cell viability was determined using Cell Titer Glo reagent (Promega).

[2] = tested on: HIV p24 antigen in latently infected CD4 T-cell cultures; test: Flow cytometry analysis of p24 expression in the in vitro latency model; format: cell-based; settings: for cells expressing p24 antigen: 48 hours, live cell gate
Method: Seven days post-infection, cells infected with NL4-3-Luc virus were stimulated for 48 hours with test compounds. Cells were stained with fixable viability dye v450 (eBioscience, San Diego, CA) in phosphate buffered saline (PBS) +2% FBS for 30 minutes at 4°C. Cells were fixed with IC Fixation Buffer (eBioscience) for 20 minutes at room temperature in the dark followed by treatment with a permeabilization buffer (eBioscience) for 30 minutes at 4°C. […] The cells were analyzed on a LSR Fortessa (BD Biosciences, San Jose, CA) and collected data were processed using a FlowJo Analysis Software (TreeStar, Ashland, OR).

[3] = molecular target: T1, human HDAC-9 (Homo sapiens, UniProt Q9UKV0); test: HDAC inhibition assay; format: biochemical
T1 construct: purchased Reaction Biology Corporation (Malvern, PA)
T1 sequence (Q9UKV0 whole entry): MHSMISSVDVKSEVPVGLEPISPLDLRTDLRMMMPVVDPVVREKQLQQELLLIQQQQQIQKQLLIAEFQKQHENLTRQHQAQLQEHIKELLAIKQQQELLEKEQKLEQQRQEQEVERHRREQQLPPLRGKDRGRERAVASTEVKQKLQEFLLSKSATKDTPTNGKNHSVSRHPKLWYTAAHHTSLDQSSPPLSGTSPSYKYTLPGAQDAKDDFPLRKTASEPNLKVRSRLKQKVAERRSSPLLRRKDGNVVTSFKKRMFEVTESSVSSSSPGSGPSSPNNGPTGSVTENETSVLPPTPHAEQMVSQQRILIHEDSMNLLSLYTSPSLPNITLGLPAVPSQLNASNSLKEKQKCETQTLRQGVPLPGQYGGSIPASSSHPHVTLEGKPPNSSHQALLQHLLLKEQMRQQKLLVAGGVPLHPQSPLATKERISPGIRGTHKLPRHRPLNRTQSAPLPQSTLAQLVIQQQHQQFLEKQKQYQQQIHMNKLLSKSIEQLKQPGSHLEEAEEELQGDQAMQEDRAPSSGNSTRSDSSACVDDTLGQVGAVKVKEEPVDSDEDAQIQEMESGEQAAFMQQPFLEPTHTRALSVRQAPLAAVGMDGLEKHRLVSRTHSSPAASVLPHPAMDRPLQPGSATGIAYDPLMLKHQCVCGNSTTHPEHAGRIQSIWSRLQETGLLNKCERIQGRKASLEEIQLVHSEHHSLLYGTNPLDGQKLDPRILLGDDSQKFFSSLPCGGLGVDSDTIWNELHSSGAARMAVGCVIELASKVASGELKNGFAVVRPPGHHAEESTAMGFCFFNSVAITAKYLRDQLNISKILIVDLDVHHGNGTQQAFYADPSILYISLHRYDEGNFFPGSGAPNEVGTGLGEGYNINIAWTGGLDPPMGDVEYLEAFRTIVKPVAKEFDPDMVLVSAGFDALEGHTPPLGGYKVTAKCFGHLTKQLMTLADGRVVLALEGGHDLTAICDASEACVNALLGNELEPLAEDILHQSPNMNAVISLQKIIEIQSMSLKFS
Method: Determination of HDACi potency against individual HDAC enzymes was performed at Reaction Biology Corporation (Malvern, PA). In brief, human HDAC-1 to -11 enzymes were incubated with serial dilutions of HDACi and fluorogenic peptide substrates (50 µM) in a 96-well format assay. […] Fluorogenic peptide Boc-Lys(trifluoroacetyl)-AMC was used as a substrate for HDAC enzymes 4, 5, 7, and 9.

[4] = tested on: latent HIV in memory CD4 T cells from HIV-infected patients on suppressive cART; test: Ex vivo activation of HIV transcription, cell-associated HIV RNA, memory CD4 T cells; format: cell-based; settings: for HIV RNA avg: Figure 2A, 40 nM RMD, one value per donor
Method: To examine the kinetics of HIV induction, we analyzed cell-associated viral RNA levels at 6, 12, 24, and 48 hours after treatment initiation.
Lysates were filtered through a Qiashredder (Qiagen).

[5] = tested on: CD4+ T cells, CD8+ T cells and CD19+ B cells in PBMCs from HIV-infected subjects; test: Cell activation analysis by flow cytometry, PBMC cultures; format: cell-based, human; settings: 4-hour pulse of 15 or 40 nM RMD, any cell subset
Method: (§1) HIV latency reversing agents that would be suitable for the therapeutic use in vivo should not induce non-specific immune activation.
For cell activation analysis, either complete PBMC cultures or resting CD4+ T cells isolated from HIV-infected cART-suppressed patients were incubated with the tested agents under specified conditions and were stained with relevant antibodies. All antibodies were purchased from BD Biosciences and included Alexa Fluor 700-labeled antibody to CD4, APC-H7-labeled antibody to CD8, PE-Cy7 -labeled antibody to CD19, PE-labeled antibody to CD69, APC-labeled antibody to CD25, and V450-labeled antibody to HLA-DR. Live cells were gated by forward and side scatter and exclusion of the dead cells by Live/Dead Fixable Aqua Stain (Invitrogen). Marker staining was assessed by flow cytometry analysis on a LSR Fortessa with data processing using FlowJo software.

[6] = tested on: PBMC cultures from HIV-infected patients; test: Cytokine induction in PBMC cultures; format: cell-based, human; settings: RMD treatment, data not shown
From the text: as §1

[7] = tested on: HIV gag-pol RNA from resting CD4 T cells of a cART-suppressed patient; test: Single-genome sequencing of HIV RNA in culture supernatants; format: cell-based; settings: 2.5 nM RMD, continuous, day 7
From the text: In parallel, we assessed the sequence diversity of HIV proviruses integrated in genomic DNA of resting CD4 T cells from the same culture.
Figure 8 Phylogenetic analysis of HIV sequences expressed ex vivo following the latency reversal. […] Single-genome sequencing was used to analyze patient HIV proviral DNA and plasma RNA at the initiation of treatment (day 0), together with the ex vivo induced HIV RNA in cell culture supernatants at the end of treatment (day 7). […] Identified HIV DNA and RNA sequences were aligned and the phylogenetic tree was constructed using Clustal W and MEAG5.
Single-genome sequencing of a portion of HIV-1 gag-pro-pol amplified from cell culture supernatants or cellular DNA extracts was performed as previously described [34]–[36]. Sequences were aligned using ClustalW and neighbor-joining phylogenetic analysis was performed using MEGA5. Trees were rooted on the subtype B consensus sequence (www.hiv.lanl.gov).

[8] = Clinical systemic exposure; format: in vivo, human
[9] = tested on: latent HIV in memory CD4 T cells from HIV-infected patients on suppressive cART; settings: for HIV RNA avg: 6 days, one value per donor; for extracellular HIV RNA in culture supernatants: memory CD4 T cells
From the text: We used HIV RNA in cell culture supernatants as a surrogate marker for virion release from treated cells. We assumed that extracellular virions would accumulate over the course of several days; therefore, the duration of culture was extended to 6 days to maximize assay sensitivity.
HIV-infected patients participating in the study were selected based on sustained plasma viral load suppression (<50 copies/ml for >12 months), CD4 counts (>350 cells/µL), and absence of co-infection with hepatitis B or C virus (Supplementary Table S1). Clinical laboratory results were reconfirmed 2 weeks before leukapheresis or blood draw. Leukapheresis was conducted for 3–4 hours, and samples were processed within 2 hours after collection. The leukapheresis product was diluted 1∶1 with PBS and layered over Ficoll for isolation of PBMCs. […] Resting CD4 T cells were isolated by first enriching total CD4 T cells (StemCell Technologies) and subsequently depleting HLA-DR-, CD25-, and CD69-positive cells via negative selection (Miltenyi Biotec, Auburn, CA).
To assess HIV activation by HDACi, up to 5 million CD4 T cells were plated in 24-well plates in 2.5 ml of media, supplemented with antiretrovirals (ARVs) (100 nM elvitegravir and 100–300 nM efavirenz) for the entire duration of culture incubation. HDACi were added at specified concentrations on day 0 and cells or culture supernatants were harvested for the analysis of HIV RNA at the indicated time points (6–48 hours or 6–7 days, respectively). For HDACi pulse treatment, cultures were washed twice using ARV-containing media at 4 or 24 hours after addition of HDACi and incubated with ARVs until harvest. To measure HIV RNA levels, 1 ml of culture supernatant was analyzed by a robotic COBAS AmpliPrep/TaqMan system (Roche Diagnostics, Indianapolis, IN), which extracts total nucleic acid and quantifies HIV RNA in copies per milliliter using the HIV-1 Test, v2.0 kit (Roche Diagnostics). For the measurement of cell-associated HIV RNA levels, cells were washed with PBS, counted, and lysed (Qiagen RLT buffer, 400 µl for every 2 million cells; Qiagen, Venlo, Netherlands). Lysates were filtered through a Qiashredder (Qiagen). Total RNA was prepared from the lysates (400 µl) using a robotic system (QIAsymphony, Qiagen) that incorporates a DNase I digestion step to eliminate cellular DNA. The resulting total RNA was eluted with 200 µl of buffer, diluted to 1 ml with nuclease-free water, and analyzed by COBAS using the HIV-1 Test v2.0 kit. Preparations of both cell-associated RNA and supernatant total nucleic acids were tested for potential contamination with HIV DNA and/or host DNA by performing the PCR amplification in the presence and absence of reverse transcriptase and by a detection of GAPDH-encoding host DNA sequence.
HIV RNA-induction experiments were conducted using 5 to 6 replicates for every experimental condition, including vehicle-treated controls. Fold induction in HIV RNA levels was calculated as a ratio of mean signals from compound-treated and vehicle (DMSO)-treated control samples from the same donor under identical conditions. […] For experiments using blood-derived resting CD4 T cells, culture supernatants from 3 replicate wells were combined and analyzed using the COBAS system.

In the case of `C/C=C1\NC(=O)[C@H]2CSSCC/C=C/[C@H](CC(=O)N[C@H](C(C)C)C(=O)N2)OC(=O)[C@H](C(C)C)NC1=O` [RMD, romidepsin], the EC50 [1] is reported as 0.0045 ± 0.001 µM, the “cells expressing p24 antigen” value ([2]; 5 nM RMD) is reported as 3.3% and the “cells expressing p24 antigen” value ([2]; 80 nM RMD) is reported as 5.5%. The “time course of p24 expression” value ([2]; 24 to 72 hours, 40 nM RMD or anti-CD3/CD28 antibodies, in presence of antiretrovirals) was “continued to increase for 72 hours”, the IC50 [3] was 8.91 µM and the “HIV RNA avg” value ([4]; 6hr) was 164 copies/mil cells and 924 copies/mil cells and 4345 copies/mil cells and 5330 copies/mil cells and 714 copies/mil cells. The “HIV RNA avg” value ([4]; 12hr) was 222 copies/mil cells and 562 copies/mil cells and 5634 copies/mil cells and 3147 copies/mil cells and 922 copies/mil cells, the “HIV RNA avg” value ([4]; 24hr) was 702 copies/mil cells and 1193 copies/mil cells and 7541 copies/mil cells and 2530 copies/mil cells and 1320 copies/mil cells and the “HIV RNA avg” value ([4]; 48hr) was 2153 copies/mil cells and 3839 copies/mil cells and 30568 copies/mil cells and 3060 copies/mil cells and 1406 copies/mil cells. For the same molecule, the “increase in intracellular HIV RNA levels versus vehicle” value ([4]; memory CD4 T cells, 40 nM RMD for 4 hours, peak between 24 and 48 hours) was 6 fold, the “expression of CD25 or HLA-DR” value [5] was “did not lead to any changes” and the “induction of IFN-α, IFN-γ, TNF-α, TGF-β, IL-2, IL-7 or other cytokines” value [6] was “no significant induction”. The “sequences of HIV RNA collected in culture supernatants” value [7] was 4, the “Free drug concentration, clinical systemic exposure” value ([8]; at Cmax, RMD 14 mg/m^2 i.v., VOR 400 mg p.o.) was 56 nM and the “Fraction of clinical exposure” value ([8]; ratio of free drug concentration in cell culture media (RMD 40 nM, VOR 1,000 nM) and in serum of clinically treated patients) was 39%. The “HIV RNA avg” value ([9]; Figure 3A, 5 nM RMD) was 1476 copies/mil cells and 10908 copies/mil cells and 138 copies/mil cells and 222 copies/mil cells and 322 copies/mil cells and 41.9 copies/mil cells and 73 copies/mil cells and 313.5 copies/mil cells, the “HIV RNA avg” value ([9]; Figure 3A, 20 nM RMD) was 68 copies/mil cells and 712 copies/mil cells and 1346 copies/mil cells and 3086 copies/mil cells and 1361 copies/mil cells and 157 copies/mil cells and 732 copies/mil cells and 4776 copies/mil cells and the “HIV RNA avg” value ([9]; Figure 3B, 5 nM RMD) was 1032 copies/mil cells and 1674 copies/mil cells and 1740 copies/mil cells and 1435 copies/mil cells and 1299 copies/mil cells and 1832 copies/mil cells and 6659 copies/mil cells and 1420 copies/mil cells and 8934 copies/mil cells and 205 copies/mil cells and 148 copies/mil cells and 1219 copies/mil cells. The “High-responding patient; HIV RNA [copies/mL]” value ([9]; Figure 7, 0.093nM RMD, donor 29, experiments 1-3) was 34 copies/mL and 36 copies/mL and 64 copies/mL, the “Low-responding patient; HIV RNA [copies/mL]” value ([9]; Figure 7, 0.093nM RMD, donor 33, experiments 1-3) was 20 copies/mL and 28 copies/mL and the “extracellular HIV RNA in culture supernatants” value ([9]; 5 nM RMD continuous 6 days) was “detection of extracellular HIV RNA in memory CD4 T-cell cultures from the majority of tested donors”. For the same molecule, the “extracellular HIV RNA in culture supernatants” value ([9]; 5 and 20 nM RMD for 4 hours, day 6) was “increased extracellular HIV RNA”.
